This is an account of results in US20240238214A1, “NANOCONSTRUCTS AND NANOPARTICLE-MEDIATED DELIVERY OF IMMUNOGENIC CELL DEATH INDUCERS FOR ENHANCING CANCER IMMUNOTHERAPY” (Purdue Research Foundation, priority 2021, published 2024).

For data set [1], the system named is CT26 murine carcinoma, B16F10 murine carcinoma and 4T1 breast mammary carcinoma cells. The data set can be described thus: HMGB1 release into medium (western blot). The settings on record: treated at IC50 for 24 hours; supernatant. In kind it is cell-based.
Experimental: After 24 hours, supernatants were collected, and a western blot immunoassay was performed to determine the amount of HMGB1 present.
The test system of another data set is CT26 cells. The data set can be described thus: In vivo tumor vaccination study. Details: species or system Balb/c mice. Conditions: cells treated at 100× IC50 for 24 hours; three million dead cells; 500,000 live CT26 cells after 9 days. Here is the method:
The vaccination study, a standard test to verify bona fide ICD, was performed with PTX and CFZ (e.g., the candidate drugs) in vivo. The vaccination study involved generating tumor antigens by exposing tumor cells to lethal dose of ICD inducers. Potential ICD inducer-treated cells (i.e., the primary dose) were injected subcutaneously to immunocompetent mice. One week later, live tumor cells were injected on the contralateral side (i.e., the rechallenge), and the growth of the tumor was monitored to determine if the drug-killed tumor cells (i.e., the primary dose) can serve as a vaccine and prevent the growth of a live cell challenge.
Dead cells were collected and washed with PBS twice to remove excess amount of the drug.
Three million dead cells were injected into the right flanks of 6-week-old immunocompetent female Balb/c mice (i.e., the primary dose), the syngeneic host of CT26 cells. After 9 days, 500,000 live CT26 cells (live tumor cells) were inoculated subcutaneously in the contralateral side of the mice (i.e., the rechallenge) and tumor growth was monitored to determine the development of anti-tumor immunity.

The subject of a further data set is JAWSII DCs. The data set can be described thus: Cytotoxicity by MTT assay, JAWSII. It counts as cell-based, murine. Conditions: 96 hours. Here is the method: (§1) As the nanoparticles hereof can be used to deliver ICD inducers to create tumor antigens, which need to be taken up by APCs, in certain embodiments, it is important for the formulations to kill tumor cells, while saving the host immune cells.
For JAWSII cells, JAWSII cells were seeded in 96 wells with 20,000 cells/well.

The test system of data set [2] is CT26 murine carcinoma, B16F10 murine carcinoma and 4T1 breast mammary carcinoma cells. The data set can be described thus: CRT exposure on cell surface (flow cytometry). It counts as cell-based. The settings on record: treated at IC50 for 6 hours; compared to control groups. The procedure:
(§2) The release of DAMPs from the treated cells were then analyzed (e.g., CRT exposure was measured by flow cytometry, HMGB1 was measured by quantifying western blot, and ATP was measured by ATP determination kit).
After 6 hours, cells were washed with PBS and fixed with 4% […] (PFA). Fixed cells were incubated with FITC-labeled CRT antibodies. Cells were analyzed by the Accuri C6 flow cytometer to determine the population of CRT-positive cells.

Data set [3] concerns CT26 cells phagocytosed by JAWSII DCs. As to the kind of experiment: Phagocytosis assay. In kind it is cell-based, murine. Conditions: CT26 treated with IC50 of drug, co-cultured with JAWSII for 24 hours. The procedure: A phagocytosis assay was performed to observe whether cells killed by ICD inducers will be taken up by dendritic cells (DCs).
CT26 cells were stained with Cell Tracker Green for 30 mins (0.5 μM) and washed once with cold serum free DMEM. CT26 cells were incubated overnight in 10% FBS media to allow any unbound dye to be inactivated. CT26 cells were collected and seeded (150,000 cells/well) in 6 wells plate for 24 hours. JAWSII cells were collected and stained with Cell Tracker Deep Red for 30 mins (0.5 μM) and washed once with cold serum free RPMI. JAWSII cells were incubated overnight in 10% FBS media to allow any unbound dye to be inactivated. […] After the treatment, CT26 containing 6 wells plate was centrifuged at 500 g×8 mins. Supernatant was aspirated to remove any remaining drugs. JAWSII cells (150,000 cells/well) were added to CT26, and cells were co-cultured for 24 hours. The co-cultured cells were collected, resuspended in the staining buffer, and analyzed by the Accuri C6 flow cytometer.

A further data set has as its system CT26 murine carcinoma. As to the kind of experiment: Cytotoxicity by MTT assay, CT26. It counts as cell-based. Conditions: Mus musculus; CT26 cells. The procedure: as §1
Cytotoxicity was assessed by the MTT assay. CT26 cells were seeded in 96 wells with 3,000 cells/well and cultured until 30% confluency. Cells were treated with varying concentrations of Drug, Drug@NP, Drug@NP-pD, Drug@NP-pD-ATP for 24 hours. After 24 hours, media was replaced, the cells were incubated for an additional 24 hours, and an MTT assay was performed to measure the number of viable cells present (see FIGS. 13A and 14A).

The subject of data set [4] is CT26 murine carcinoma, B16F10 murine carcinoma and 4T1 breast mammary carcinoma cells. As to the kind of experiment: ATP secretion into medium (ATP determination kit). The settings on record: treated at IC50 for 24 hours; supernatant. In kind it is cell-based. The procedure: as §2
After 24 hours, supernatants were collected, and the amount of ATP in the supernatant was measured with ATP determination kit.

The next data set in a line: physchem. Conditions: aqueous with cosolvent or surfactant or cyclodextrin.
The conditions of data set [5]: cited from earlier work.
In a further data set the target is T1, apyrase (Solanum tuberosum, UniProt P80595).
T1 construct: purchased Thermo Fisher Scientific Inc. (Waltham, MA)
T1 sequence (P80595 1-454): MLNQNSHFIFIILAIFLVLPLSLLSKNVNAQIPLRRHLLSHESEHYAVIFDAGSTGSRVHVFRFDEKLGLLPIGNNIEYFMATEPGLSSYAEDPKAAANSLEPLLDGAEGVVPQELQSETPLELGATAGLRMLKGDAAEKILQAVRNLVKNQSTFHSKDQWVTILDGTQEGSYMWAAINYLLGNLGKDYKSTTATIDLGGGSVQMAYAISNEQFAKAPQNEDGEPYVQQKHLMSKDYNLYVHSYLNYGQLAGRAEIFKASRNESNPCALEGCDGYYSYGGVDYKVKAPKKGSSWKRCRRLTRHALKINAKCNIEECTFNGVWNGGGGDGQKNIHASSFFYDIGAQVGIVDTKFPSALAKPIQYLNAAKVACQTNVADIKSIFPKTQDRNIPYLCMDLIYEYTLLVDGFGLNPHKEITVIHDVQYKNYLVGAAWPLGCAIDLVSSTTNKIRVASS
The data set can be described thus: ATP level after incubation with apyrase (ATP bioluminescence assay). It counts as biochemical. The settings on record: 10 μM ATP, 5 units/mL apyrase, 37° C., 10 minutes. Here is the method: Further, to confirm the activity of apyrase against ATP, 10 μM ATP was incubated with or without 5 units/mL apyrase in 37° C. for 10 minutes. The ATP level after incubation was measured by ATP bioluminescence assay.

The test system of the next data set is JAWSII cells. The data set can be described thus: Stability against apyrase (DC migration assay in Transwell). It counts as cell-based, murine. The settings on record: 10 μM ATP, 0.5 units of apyrase, 4 hours. Here is the method:
To screen the effect of degrading enzyme to the nanoparticle-bound ATP, apyrase (a CD39 equivalent) was co-incubated with ATP or NP-pD-ATP, and a DC migration assay was performed in a Transwell (FIG. 9A). For the migration assay, 100 μL of 2×10^5 JAWSII cells, suspended in media, were added to the top of the Transwell (8 μm pore size). 600 μL of media containing 10 μM ATP conjugated nanoparticle was added to the bottom well (with or without 0.5 units of apyrase). Cells were incubated in 37° C. for 4 hours. Bottom media was collected to analyze the number of cells migrated by flow cytometry.

Structures are written as SMILES. Converted amounts (≈) assume the structure as drawn. Some results are limits rather than exact numbers.

For the molecule `O=C1[O][Pt]2([NH][C@@H]3CCCC[C@H]3[NH]2)[O]C1=O` [OXA, oxaliplatin], the HMGB1 release entry in [1] was “induced the release of HMGB1”. Moreover, the “tumor growth after live CT26 rechallenge in mice vaccinated with drug-treated dead cells” value (“tumor growth after live CT26 rechallenge” for short) in the data set with CT26 cells is “tumors did not grow”.
`CC(=O)O[C@H]1C(=O)[C@@]2(C)[C@H]([C@H](OC(=O)c3ccccc3)[C@]3(O)C[C@H](OC(=O)[C@H](O)[C@@H](NC(=O)c4ccccc4)c4ccccc4)C(C)=C1C3(C)C)[C@]1(OC(C)=O)CO[C@@H]1C[C@@H]2O` [PTX, paclitaxel]: the HMGB1 release entry in data set [1] is reported as “induced the release of HMGB1”. Besides, the “concentration with sudden decrease of DC viability” value with JAWSII DCs is no less than 30 µM. Besides, the CRT exposure result in data set [2] is “induced the exposure of CRT”. Moreover, in data set [3], the “uptake of CT26 to the dendritic cells” value was “significantly increased the uptake of CT26 to the dendritic cells”. The same molecule returned an IC50 in the data set on CT26 murine carcinoma of 250 nM. Further, the ATP secretion result in [4] was “caused the secretion of ATP”. The “tumor growth after live CT26 rechallenge” value with CT26 cells is listed as “tumors did not grow”.
On to `Nc1ccn([C@@H]2O[C@H](CO)[C@@H](O)C2(F)F)c(=O)n1` [GEM, gemcitabine], for which the HMGB1 release entry in data set [1] is “failed to induce HMGB1 secretion”. Moreover, the CRT exposure result in data set [2] is on record as “failed to induce CRT exposure”. Besides, in the data set on CT26 cells, the “tumor growth after live CT26 rechallenge” value is listed as “Tumors grew in all animals”.
For the molecule `CC(C)C[C@H](NC(=O)[C@H](CCc1ccccc1)NC(=O)CN1CCOCC1)C(=O)N[C@@H](Cc1ccccc1)C(=O)N[C@@H](CC(C)C)C(=O)[C@@]1(C)CO1` [CFZ, carfilzomib], in data set [1], the HMGB1 release entry is given as “induced the release of HMGB1”. In addition, the CRT exposure entry in [2] was “induced the exposure of CRT”. The same molecule gave a solubility in “physchem” of 9 µg/mL (≈ 12.5 µM). For the same molecule, the “uptake of CT26 to the dendritic cells” value in [3] was “significantly increased the uptake of CT26 to the dendritic cells”. For the same molecule, in [5], the water solubility is 0.7 to 3.6 µg/mL. The molecule further registered an IC50 with CT26 murine carcinoma of 15 nM. Further, in data set [4], the ATP secretion entry is recorded as “caused the secretion of ATP”. Besides, in the data set with CT26 cells, the “tumor growth after live CT26 rechallenge” value is given as “tumors did not grow”.
As to `Nc1ncnc2c1ncn2[C@@H]1O[C@H](COP(=O)(O)OP(=O)(O)OP(=O)(O)O)[C@@H](O)[C@H]1O` [free ATP, adenosine triphosphate], the “ATP level after incubation with apyrase” value on apyrase is reported as “not detectable”. Also, the “chemotactic ability (DC migration) in the presence of apyrase” value in the data set with JAWSII cells was “completely abolished the chemotactic ability of free ATP”.
